Literature values, collected in patent US20260114463A1, “COATING LIQUID COMPOSITION, PRODUCTION METHOD THEREFOR, AND LIQUID CONTAINING LOW-TEMPERATURE DAMAGE INHIBITOR” (Mitsubishi Chemical Corporation, priority 2023, published 2026).

Conditions: raw material data

Glycerin monocaprylate [Example M-100]
HLB: 7.0
